Experimental data from patent US5407911A, “Parathyroid hormone-containing emulsion for nasal administration” (Asahi Kasei Kogyo Kabushiki Kaisha, priority 1991, dated 1995).

Tests used:
Type in all cases: physicochemical
[1] = Stabilities of the emulsions according to the added concentrations of the azacycloalkane derivative (Referential Experiment 2); conditions: for Observation after 3 days standing / Observation after 7 days standing: room temperature
Experimental: Each 5 ml of a 1% (W/V) solution preliminarily prepared by dissolving dipotassium glycyrrhizate in distilled water was poured in each of eight 10 ml size test tubes, and thereto was added 1-[2-(decylthio)ethyl] azacyclopentane-2-one selected from the azacycloalkane derivatives so as to make a concentration ranging from 0 to 10%. Then the mixture was agitated for 1 minute using Biomixer (NIHON SEIKI SEISAKUSHO) at 15,000 rpm to prepare each emulsion. The state of dispersion just after the preparation, or after 3 days or 7 days standing at room temperature was observed.

[2] = State of dispersion of emulsions of 1-[2-(decylthio)ethyl]azacyclopentan-2-one made with three emulsifying agents (Referential Experiment 1)
Experimental: Using 1-[2-(decylthio)ethyl]azacyclopentan-2-one selected from the azacycloalkane derivatives, and three emulsifying agents hereinbelow, emulsifiabilities and stabilities of the emulsions were examined.
(§1) […] The mixutre was agitated under 15,000 rpm for 1 minute by Biomixer (NIHON SEIKI SEISAKUSHO) to prepare each emulsion. The state of dispersion just after the preparation and after 3 days standing at room temperature was observed. The turbidity just after the preparation was measured by absorbance at 650 nm, and used as the index of emulsifiability.

[3] = Turbidity just after preparation (absorbance at 650 nm) as index of emulsifiability (Referential Experiment 1); conditions: for Turbidity (650 nm): just after preparation
Experimental: as §1

[4] = azacycloalkane 10.0 % in 1% dipotassium glycyrrhizate

## CCCCCCCCCCSCCN1CCCC1=O [1-[2-(decylthio)ethyl]azacyclopentane-2-one]
[1]; azacycloalkane 0.01 % in 1% dipotassium glycyrrhizate
  Observation just after preparation: Colorless clear
[1]; azacycloalkane 0.01% to 10% at 1% dipotassium glycyrrhizate
  Emulsification and emulsion stability: good emulsification and gave stable emulsion
[1]; azacycloalkane 0.01 %
  Observation after 3 days standing: Colorless clear
  Observation after 7 days standing: Colorless clear
[1]; azacycloalkane 0.1 % in 1% dipotassium glycyrrhizate
  Observation just after preparation: Colorless clear
[1]; azacycloalkane 0.1 %
  Observation after 3 days standing: Colorless clear
  Observation after 7 days standing: Colorless clear
[1]; azacycloalkane 0.5 % in 1% dipotassium glycyrrhizate
  Observation just after preparation: Colorless clear
[1]; azacycloalkane 0.5 %
  Observation after 3 days standing: Colorless clear
  Observation after 7 days standing: Colorless clear
[1]; azacycloalkane 1.0 % in 1% dipotassium glycyrrhizate
  Observation just after preparation: White clear
[1]; azacycloalkane 1.0 %
  Observation after 3 days standing: White clear
  Observation after 7 days standing: White clear
[1]; azacycloalkane 2.0 % in 1% dipotassium glycyrrhizate
  Observation just after preparation: White clear
[1]; azacycloalkane 2.0 %
  Observation after 3 days standing: White clear
  Observation after 7 days standing: White clear
[1]; azacycloalkane 5.0 % in 1% dipotassium glycyrrhizate
  Observation just after preparation: White emulsified
[1]; azacycloalkane 5.0 %
  Observation after 3 days standing: White emulsified
  Observation after 7 days standing: White emulsified
[1]; [4]
  Observation just after preparation: White emulsified
  Observation after 3 days standing: White emulsified
  Observation after 7 days standing: White emulsified

## CC1(C)[C@@H](O[C@H]2O[C@H](C(=O)[O-])[C@@H](O)[C@H](O)[C@H]2O[C@@H]2O[C@H](C(=O)[O-])[C@@H](O)[C@H](O)[C@H]2O)CC[C@]2(C)[C@H]3C(=O)C=C4[C@@H]5C[C@@](C)(C(=O)O)CC[C@]5(C)CC[C@@]4(C)[C@]3(C)CC[C@@H]12.[K+].[K+] [dipotassium glycyrrhizate]
[2]; emulsifying agent 0.5 %
  Just after preparation (state of dispersion): White clear
[2]; emulsifying agent 1.0 %
  Just after preparation (state of dispersion): White clear
[2]; emulsifying agent 2.0 %
  Just after preparation (state of dispersion): White clear
[2]; emulsifying agent 3.0 %
  Just after preparation (state of dispersion): White clear
[2]; emulsifying agent at 0.1-5 %
  Emulsification: good emulsification
[2]; emulsifying agent at 4-5 %
  Dissolution: full dissolution
[3]; emulsifying agent 0.1 %
  Turbidity (650 nm): 1.284
[3]; emulsifying agent 0.5 %
  Turbidity (650 nm): 0.459
[3]; emulsifying agent 1.0 %
  Turbidity (650 nm): 0.437
[3]; emulsifying agent 2.0 %
  Turbidity (650 nm): 0.405
[3]; emulsifying agent 3.0 %
  Turbidity (650 nm): 0.346
[3]; emulsifying agent 4.0 %
  Turbidity (650 nm): 0.006
[3]; emulsifying agent 5.0 %
  Turbidity (650 nm): 0.006
[3]; same concentration level
  Turbidity as index of emulsifiability, compared with HCO-60 and polysorbate 80: stronger emulsifiability
